pIC50: −log10 of the molar value.
Assays:
[1] = tested on: AGS cells; assay: Gastric cancer cell proliferation inhibitory activity (CellTiter Glo), AGS; assay type: cell-based; conditions: 72 hours, relative IC50
Protocol: (§1) Experiments were performed using four types of gastric cancer cell lines (AGS, SNU-1, KATO-III, and MKN45) to measure the cell proliferation inhibitory ability of each Example compound. For AGS cells, 90 µL of cell suspension was dispensed into a 96-well plate using F-12K (Gibco) medium containing 10 % FBS, followed by incubation in a cell incubator at 37 °C and 5 % CO2. For SNU-1 and MKN45 cells, 90 µL of cell suspension was dispensed into a 96-well plate using RPMI1640 (Gibco) medium containing 10 % FBS, followed by incubation in a cell incubator at 37 °C and 5 % CO2. For KATO-III cells, 90 uL of cell suspension was dispensed into a 96-well plate using IMDM (Gibco) medium containing 10 % FBS, followed by incubation in a cell incubator at 37 °C and 5 % CO2. The next day, each Example compound dissolved and diluted in DMSO across 9 concentration ranges and a DMSO control group were added at 10 µL to each 96-well plate and treated for 72 hours. After completion of the compound treatment, 100 µL of CellTiter Glo (Promega) reagent was added to each well of the 96-well plate, followed by shaking for 10 minutes and standing at room temperature for 10 minutes. Luminescence signals were measured after inserting the 96-well plate into an Envision plate reader (PerkinElmer). Relative IC50 values were calculated by fitting a dose-response curve using XLfit (IDBS Ltd) software.
(§2) The gastric cancer cell proliferation inhibitory activities of the Example compounds measured by the method described above were evaluated according to the following criteria, and the results are presented in Table 16.

[2] = tested on: SNU-1; assay: Gastric cancer cell proliferation inhibitory activity (CellTiter Glo), SNU-1; assay type: cell-based; conditions: 72 hours, relative IC50
Protocol: as §1, §2

[3] = tested on: MKN45 cells; assay: Gastric cancer cell proliferation inhibitory activity (CellTiter Glo), MKN45; assay type: cell-based; conditions: 72 hours, relative IC50
Protocol: as §1, §2

[4] = tested on: KATO-III cells; assay: Gastric cancer cell proliferation inhibitory activity (CellTiter Glo), KATO-III; assay type: cell-based; conditions: 72 hours, relative IC50
Protocol: as §1, §2

[5] = target: T1, CDK12 (Homo sapiens, UniProt Q9NYV4); assay: Cellular CDK12 inhibitory activity assay (Ser2 phosphorylation of RNA polymerase II subunit B1 CTD in MDA-MB-231 cells); assay type: cell-based; set-up: using MDA-MB-231 breast cancer cells; endogenous in cells; host or cells: MDA-MB-231; conditions: MDA-MB-231 cells, 6 hours treatment; read-out: pRpbl CTD S2 IC50
T1 sequence (Q9NYV4 whole entry, species assumed): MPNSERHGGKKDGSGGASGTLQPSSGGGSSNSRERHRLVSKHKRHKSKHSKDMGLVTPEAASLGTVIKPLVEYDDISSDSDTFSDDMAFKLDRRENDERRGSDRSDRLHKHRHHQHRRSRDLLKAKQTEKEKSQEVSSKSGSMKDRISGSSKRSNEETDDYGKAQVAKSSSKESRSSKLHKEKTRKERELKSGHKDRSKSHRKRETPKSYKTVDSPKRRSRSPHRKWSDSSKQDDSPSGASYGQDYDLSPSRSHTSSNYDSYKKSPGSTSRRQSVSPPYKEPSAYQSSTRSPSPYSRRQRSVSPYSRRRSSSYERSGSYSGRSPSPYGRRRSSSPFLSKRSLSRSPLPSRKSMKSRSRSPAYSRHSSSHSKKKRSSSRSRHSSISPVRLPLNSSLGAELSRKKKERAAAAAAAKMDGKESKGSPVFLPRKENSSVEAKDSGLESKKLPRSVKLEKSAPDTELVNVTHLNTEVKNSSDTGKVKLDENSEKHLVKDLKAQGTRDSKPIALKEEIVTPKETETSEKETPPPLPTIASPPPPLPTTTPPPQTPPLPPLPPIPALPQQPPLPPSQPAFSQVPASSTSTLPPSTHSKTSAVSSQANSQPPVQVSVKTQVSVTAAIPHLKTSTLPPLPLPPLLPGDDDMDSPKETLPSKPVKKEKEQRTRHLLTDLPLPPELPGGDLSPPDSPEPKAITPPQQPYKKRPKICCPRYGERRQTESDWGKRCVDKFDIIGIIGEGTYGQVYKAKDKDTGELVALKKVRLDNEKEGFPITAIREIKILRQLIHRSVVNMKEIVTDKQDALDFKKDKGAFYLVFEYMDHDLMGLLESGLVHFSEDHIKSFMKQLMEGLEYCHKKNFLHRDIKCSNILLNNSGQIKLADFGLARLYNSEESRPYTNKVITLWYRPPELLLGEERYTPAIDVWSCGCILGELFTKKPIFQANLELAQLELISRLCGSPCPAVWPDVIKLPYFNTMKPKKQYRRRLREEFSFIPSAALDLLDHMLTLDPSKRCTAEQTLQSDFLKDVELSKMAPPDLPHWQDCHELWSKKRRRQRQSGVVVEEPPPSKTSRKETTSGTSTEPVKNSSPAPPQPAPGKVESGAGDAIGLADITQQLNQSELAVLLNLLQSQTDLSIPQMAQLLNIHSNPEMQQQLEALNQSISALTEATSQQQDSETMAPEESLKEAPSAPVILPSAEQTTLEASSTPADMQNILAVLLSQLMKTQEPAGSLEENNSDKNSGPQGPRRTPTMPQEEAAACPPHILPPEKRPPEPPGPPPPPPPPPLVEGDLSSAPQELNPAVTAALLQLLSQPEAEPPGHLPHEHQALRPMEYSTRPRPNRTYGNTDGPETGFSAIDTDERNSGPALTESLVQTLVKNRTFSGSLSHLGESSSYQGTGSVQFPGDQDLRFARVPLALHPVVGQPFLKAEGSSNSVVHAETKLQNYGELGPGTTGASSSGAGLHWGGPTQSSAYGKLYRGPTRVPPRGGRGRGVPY
T1 sequence (O75909 whole entry partner, species assumed): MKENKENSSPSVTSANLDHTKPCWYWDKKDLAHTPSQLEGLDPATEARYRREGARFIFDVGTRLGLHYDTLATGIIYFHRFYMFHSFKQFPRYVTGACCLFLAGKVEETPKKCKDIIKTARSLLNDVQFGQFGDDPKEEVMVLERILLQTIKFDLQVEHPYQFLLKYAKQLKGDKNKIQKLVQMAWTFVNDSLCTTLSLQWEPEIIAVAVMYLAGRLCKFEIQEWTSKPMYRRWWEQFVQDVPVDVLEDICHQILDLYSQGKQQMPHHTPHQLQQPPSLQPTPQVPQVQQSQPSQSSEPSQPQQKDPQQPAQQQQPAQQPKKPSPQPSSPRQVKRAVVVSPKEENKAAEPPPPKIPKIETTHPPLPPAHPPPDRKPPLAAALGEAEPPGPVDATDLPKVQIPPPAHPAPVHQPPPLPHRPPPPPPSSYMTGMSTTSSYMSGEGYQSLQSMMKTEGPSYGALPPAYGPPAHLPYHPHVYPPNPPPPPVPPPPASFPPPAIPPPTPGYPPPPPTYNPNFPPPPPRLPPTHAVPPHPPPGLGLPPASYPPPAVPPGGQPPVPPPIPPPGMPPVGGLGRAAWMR
Summary of the method: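 MDA-MB-231 cells in L-15 with 10 % FBS were treated with compound at 9 concentrations for 6 h at 37 °C, 0 % CO2. In-Cell Western read phospho-Ser2 and total RNA polymerase II CTD on a Li-COR Odyssey; IC50 from 4-parameter dose-response fit.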

[6] = tested on: MDA-MB-231 breast cancer cells; assay: Proliferation inhibitory activity assay against MDA-MB-231 breast cancer cells; assay type: cell-based; conditions: Homo sapiens, 72 hours, CellTiter Glo, relative IC50
Summary of the method: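 Cells grown in L-15 with 10% FBS at 37 °C, 0% CO2, then exposed next day to compounds at 9 concentrations (DMSO vehicle) for 72 h. Viability read by CellTiter Glo luminescence; relative IC50 from dose-response curve fit.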

[7] = target: CDK1 (Homo sapiens, UniProt P06493); assay: CDK1 kinase inhibitory activity assay and selectivity over CDK12; assay type: biochemical; conditions: for pIC50: kinase reaction 120 minutes, 33P-gamma-ATP; for CDK1/CDK12: ratio of CDK1 IC50 to CDK12 IC50
Sequence of CDK1 (P06493 whole entry, species assumed): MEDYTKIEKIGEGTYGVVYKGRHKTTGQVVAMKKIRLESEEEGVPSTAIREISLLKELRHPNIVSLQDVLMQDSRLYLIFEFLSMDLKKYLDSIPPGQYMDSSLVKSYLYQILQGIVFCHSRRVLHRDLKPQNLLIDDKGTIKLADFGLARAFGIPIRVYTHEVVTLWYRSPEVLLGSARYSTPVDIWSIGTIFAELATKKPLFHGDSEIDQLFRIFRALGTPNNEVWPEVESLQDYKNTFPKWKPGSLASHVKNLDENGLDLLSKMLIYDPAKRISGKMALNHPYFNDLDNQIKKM
Sequence of CDK1 (P14635 whole entry partner, species assumed): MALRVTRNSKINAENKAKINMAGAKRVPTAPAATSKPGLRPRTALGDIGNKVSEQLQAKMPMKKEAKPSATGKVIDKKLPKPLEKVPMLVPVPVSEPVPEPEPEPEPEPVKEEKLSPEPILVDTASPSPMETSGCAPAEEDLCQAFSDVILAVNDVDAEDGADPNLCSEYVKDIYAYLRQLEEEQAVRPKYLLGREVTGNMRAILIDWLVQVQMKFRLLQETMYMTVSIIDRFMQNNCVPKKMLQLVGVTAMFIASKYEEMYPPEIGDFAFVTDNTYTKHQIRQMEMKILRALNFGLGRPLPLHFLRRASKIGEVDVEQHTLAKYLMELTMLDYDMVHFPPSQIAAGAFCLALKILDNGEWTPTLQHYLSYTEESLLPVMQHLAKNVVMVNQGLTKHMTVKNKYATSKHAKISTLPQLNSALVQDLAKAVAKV
Protocol: (§3) Before initiating the CDK1 and CDK2 kinase reactions, each Example compound was dissolved and diluted in DMSO as a solvent across 9 concentration ranges at room temperature. The diluted solutions were then incubated with a mixture of kinase and substrate (and cofactors, if required) for 20 minutes. Next, radioisotope-labeled ATP (^33P-gamma-ATP) was added to proceed with the kinase reaction at room temperature for 120 minutes. After the reaction was completed, the reaction mixture was transferred to a filter paper that binds the radioisotope-labeled catalytic product (^33P-substrate). Unreacted ^33P-ATP was removed by washing with 0.75 % phosphoric acid, and then the radioactive phosphorylated substrate remaining on the filter paper was measured. Kinase activity data were expressed as a percentage of the kinase activity remaining in the test sample compared to a DMSO control group. The half-maximal inhibitory concentration (IC50) for each kinase was calculated using Prism software.
(§4) The CDK1 and CDK2 kinase inhibitory activities of the Example compounds measured by the above method were evaluated according to the following criteria, and the results are presented in Table 14.

[8] = target: T1, CDK12; assay: CDK12 kinase inhibitory activity assay (33P-ATP filter binding); assay type: biochemical; conditions: kinase reaction 120 minutes, 33P-gamma-ATP; read-out: CDK12 IC50
Summary of the method: (§5)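 Compound in 9 concentrations pre-incubated 20 min with kinase and substrate, then ^33P-γ-ATP added and reacted 120 min at room temperature. Phosphorylated substrate captured on filter, washed with 0.75 % phosphoric acid and counted; activity as % of DMSO control, IC50 fitted.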

[9] = target: CDK13 (Homo sapiens, UniProt Q14004); assay: CDK13 kinase inhibitory activity assay (33P-ATP filter binding); assay type: biochemical; conditions: kinase reaction 120 minutes, 33P-gamma-ATP; read-out: CDK13 IC50
Sequence of CDK13 (Q14004 whole entry, species assumed): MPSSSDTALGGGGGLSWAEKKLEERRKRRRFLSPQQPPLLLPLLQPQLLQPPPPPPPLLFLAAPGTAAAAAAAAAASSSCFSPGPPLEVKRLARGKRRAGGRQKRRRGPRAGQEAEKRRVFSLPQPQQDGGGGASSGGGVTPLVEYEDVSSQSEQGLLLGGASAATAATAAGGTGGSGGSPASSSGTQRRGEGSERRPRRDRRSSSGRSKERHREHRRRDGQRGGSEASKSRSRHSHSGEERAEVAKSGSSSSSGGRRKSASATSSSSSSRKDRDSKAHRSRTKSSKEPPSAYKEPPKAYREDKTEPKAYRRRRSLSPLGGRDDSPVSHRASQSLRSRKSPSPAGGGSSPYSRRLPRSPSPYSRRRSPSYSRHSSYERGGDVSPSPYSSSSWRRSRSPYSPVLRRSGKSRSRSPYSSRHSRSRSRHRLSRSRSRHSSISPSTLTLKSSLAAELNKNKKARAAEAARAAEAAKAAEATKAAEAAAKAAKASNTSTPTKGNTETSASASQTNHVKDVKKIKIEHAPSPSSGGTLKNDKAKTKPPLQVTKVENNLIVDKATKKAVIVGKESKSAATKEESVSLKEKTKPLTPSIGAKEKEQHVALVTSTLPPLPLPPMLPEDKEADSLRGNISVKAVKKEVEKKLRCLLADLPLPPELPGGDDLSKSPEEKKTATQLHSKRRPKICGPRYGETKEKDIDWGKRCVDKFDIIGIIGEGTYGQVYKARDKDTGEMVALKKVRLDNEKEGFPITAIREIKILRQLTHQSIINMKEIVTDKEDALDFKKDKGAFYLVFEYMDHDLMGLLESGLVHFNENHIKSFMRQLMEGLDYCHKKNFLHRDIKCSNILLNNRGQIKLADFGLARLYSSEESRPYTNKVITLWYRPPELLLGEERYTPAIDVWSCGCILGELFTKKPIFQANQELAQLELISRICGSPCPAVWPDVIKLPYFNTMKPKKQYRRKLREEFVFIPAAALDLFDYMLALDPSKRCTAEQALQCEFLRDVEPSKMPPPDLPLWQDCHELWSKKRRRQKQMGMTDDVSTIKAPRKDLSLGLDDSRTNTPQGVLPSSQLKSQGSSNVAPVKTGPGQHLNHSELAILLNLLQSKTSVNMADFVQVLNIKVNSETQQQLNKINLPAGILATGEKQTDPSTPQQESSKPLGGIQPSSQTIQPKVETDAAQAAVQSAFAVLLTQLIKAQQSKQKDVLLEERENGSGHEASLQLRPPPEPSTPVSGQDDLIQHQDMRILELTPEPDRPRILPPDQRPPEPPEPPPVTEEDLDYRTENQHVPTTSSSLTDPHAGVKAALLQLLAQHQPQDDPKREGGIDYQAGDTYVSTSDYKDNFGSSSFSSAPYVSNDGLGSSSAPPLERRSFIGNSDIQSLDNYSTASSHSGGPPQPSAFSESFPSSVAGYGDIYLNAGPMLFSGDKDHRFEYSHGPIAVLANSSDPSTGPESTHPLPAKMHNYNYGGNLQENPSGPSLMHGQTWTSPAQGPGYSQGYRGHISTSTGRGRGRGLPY
Sequence of CDK13 (O75909 whole entry partner, species assumed): as the sequence (O75909 whole entry partner, species assumed) above
Summary of the method: as §5

[10] = target: CDK2 (Homo sapiens, UniProt P24941); assay: CDK2 kinase inhibitory activity assay and selectivity over CDK12; assay type: biochemical; conditions: for pIC50: kinase reaction 120 minutes, 33P-gamma-ATP; for CDK2/CDK12: ratio of CDK2 IC50 to CDK12 IC50
Protocol: as §3, §4

Compound	pIC50 [5]	pIC50 [6]	pIC50 [7]	CDK1/CDK12 [7]	pIC50 [8]	pIC50 [9]	pIC50 [10]	CDK2/CDK12 [10]	pIC50 [1]	pIC50 [2]	pIC50 [3]	pIC50 [4]
N.N.[Cl][Pt][Cl] [Cisplatin, reference compound]	–	–	–	–	–	–	–	–	< 6.00	< 6.00	< 6.00	< 6.00
FC(F)(F)c1cnc2c(NCc3nc4ccccc4[nH]3)cc(N3CCOCC3)nn12 [Example 69, N-((1H-benzo[d]imidazol-2-yl)methyl)-6-morpholino-3-(trifluoromethyl)imidazo[1,2-b]pyridazin-8-amine]	5.52 to 6.52	6.30 to 7.30	< 6.00	B (100-fold < CDK1/CDK12 or CDK2/CDK12 ≤ 500-fold)	> 7.00	> 7.00	< 6.00	B (100-fold < CDK1/CDK12 or CDK2/CDK12 ≤ 500-fold)	–	–	–	–
COc1cc2nc(CNc3cc(N4CCOCC4)nn4c(C(F)(F)F)cnc34)[nH]c2cc1Cl [Example 71, N-((6-chloro-5-methoxy-1H-benzo[d]imidazol-2-yl)methyl)-6-morpholino-3-(trifluoromethyl)imidazo[1,2-b]pyridazin-8-amine]	> 6.52	≥ 7.30	< 6.00	B (100-fold < CDK1/CDK12 or CDK2/CDK12 ≤ 500-fold)	> 7.00	> 7.00	< 6.00	B (100-fold < CDK1/CDK12 or CDK2/CDK12 ≤ 500-fold)	–	–	–	–

Now from value to compound, other results behind:

pIC50 [5]	pIC50 [6]	pIC50 [7]	CDK1/CDK12 [7]	pIC50 [8]	pIC50 [9]	pIC50 [10]	CDK2/CDK12 [10]	Compound	pIC50 [1]	pIC50 [2]	pIC50 [3]	pIC50 [4]
> 6.52	≥ 7.30	< 6.00	A (CDK1/CDK12 or CDK2/CDK12 > 500-fold)	> 7.00	> 7.00	< 6.00	A (CDK1/CDK12 or CDK2/CDK12 > 500-fold)	Cc1cc2nc(CNc3cc(N4CCOCC4)nn4c(C(F)(F)F)cnc34)[nH]c2cc1C [Example 72, N-((5,6-dimethyl-1H-benzo[d]imidazol-2-yl)methyl)-6-morpholino-3-(trifluoromethyl)imidazo[1,2-b]pyridazin-8-amine]	–	–	–	–
5.52 to 6.52	≥ 7.30	< 6.00	A (CDK1/CDK12 or CDK2/CDK12 > 500-fold)	> 7.00	> 7.00	< 6.00	A (CDK1/CDK12 or CDK2/CDK12 > 500-fold)	COc1cccc2[nH]c(CNc3cc(N4CCOCC4)nn4c(C(F)(F)F)cnc34)nc12 [Example 73, N-((4-methoxy-1H-benzo[d]imidazol-2-yl)methyl)-6-morpholino-3-(trifluoromethyl)imidazo[1,2-b]pyridazin-8-amine]	–	–	–	–
> 6.52	6.30 to 7.30	< 6.00	A (CDK1/CDK12 or CDK2/CDK12 > 500-fold)	> 7.00	> 7.00	< 6.00	A (CDK1/CDK12 or CDK2/CDK12 > 500-fold)	Cc1ccnc2[nH]c(CNc3cc(N4CCOCC4)nn4c(C(F)(F)F)cnc34)nc12 [Example 75, N-((7-methyl-3H-imidazo[4,5-b]pyridin-2-yl)methyl)-6-morpholino-3-(trifluoromethyl)imidazo[1,2-b]pyridazin-8-amine]	–	–	–	–
